Data: patent US20130022640A1, “IMMUNE MODULATORS RELATING TO FOXO3A” (Secretary, Department of Health and Human Services, priority 2010, published 2013)

How the values were obtained:
TcR-I T cells [1] = test: ELISPOT (IFN-γ, granzyme B) of TcR-I T cells re-isolated from treated TRAMP mice; format: in vivo, mouse
Method: (§1) Lymph node (LN) cells from TcR-I mice were prepared in a single-cell suspension. Cell numbers were adjusted to 3×10^6 TcR-I cells to be transferred intravenously (i.v.) into recipient mice. In some experiments, inhibitors to IDO (1-methly-D-tryptophan, 1MDT) and arginase ((S) 2-bronoethyl)-L-cysteine (BEC)) were added to the drinking water every 3 days (5 μg/ml).
(§2) A blocking anti-PD-1 antibody (Ab) (clone RMP1-14) (Yamazaki et al., J. Immunol., 175: 1586-1592 (2005)) was administered by intraperitoneal (i.p.) injection on days 0, 1, and 3 with respect to adoptive transfer of TcR-I T cells (250 μg/injection). Anti-TGF-β Ab was injected i.p. on days −1,0,1 and 2 with respect to TcR-I transfer (500 μg/injection). Anti-CD317 Ab (5 μg) (kindly provided by Dr. Marco Colonna) was injected i.p. on days −1 and 0 with respect to TcR-I transfer (Blasius et al., J. Immunol., 177: 3260-3265 (2006)).
Multiscreen plates (Millipore, Billerica, Mass.) were coated with 100 μl of capture Ab (R&D Systems Inc., Minneapolis, Minn.) overnight at 4° C. IFN-γ (1×10^5) or granzyme B (2×10^4) purified Thy 1.1^+ TcR T cells were added to increasing concentrations of TAg560-568. After incubation, plates were washed and processed as previously described (Shafer-Weaver et al., Cancer Research, 69: 6256-6264 (2009)).
It was next determined whether in vivo depletion of TADCs enhanced TcR-I effector function. TADCs were depleted via i.p. injection of anti-CD317 Ab into TRAMP mice. TcR-I T cells were then transferred into TRAMP mice with or without DC depletion. T cells were re-isolated on days 6 (FIGS. 3A and 3B) or 12 (FIGS. 3C and 3D) after transfer to assess CTL effector function.
Selective amino acid catabolism is a previously-described mechanism of immune dysfunction in cancer (Bronte et al., J. Exp. Med., 201: 1257-1268 (2005); Sharma et al., J. Clin. Invest., 117: 2570-2582 (2007); Srivastava et al., Cancer Res., 70: 68-77 (2010)). […]

TcR-I T cells [2] = test: In vitro suppressor assay after 4 day culture of TcR-I T cells with TRAMP DC and blocking agents; format: cell-based, mouse; details: TRAMP DC + agent
Method: (§3) Naïve TcR-I T cells were co-cultured with DC for 72 hours. TcR-I cells were then re-isolated via negative selection with magnetic beads. To assess tolerance, TcR-I T cells were subjected to secondary stimulation with normal splenocytes and TAg. After 48 hours, wells were pulsed with 1 μCi [^3H] thymidine (Amersham, Buckinghamshire, England) for 12 hours. To assess suppressor activity, graded numbers of TcR-I T cells were added to 1×10^4 responder 37B7 TRP-2-specific T cells (Singh et al., J. Immunother., 32: 129-139 (2009)), 1×10^5 splenocytes, and 5 μM TRP-2, and incubated for 72 h at 37° C. One μCi of [^3H] thymidine per well was added for an additional 16 h and harvested as described above.
(§4) To investigate the effects of blocking IDO in vitro, 1MDT was also added to purified DC cultures to inhibit IDO activity during DC stimulation of TcR-I proliferation (FIG. 6A). Tolerance was assessed by testing secondary stimulation 4 days after primary culture with 1 MDT, a blocking agent to suppressive mediator IDO (FIG. 6D).
(§5) To investigate the effects of blocking PD-1 in vitro, anti-PD-1 antibody was added to cultures of TcR-I T cells and TRAMP or WT prostate DCs. Tolerance was assessed by testing secondary stimulation 4 days after primary culture with blocking agents, including anti-PD-1 antibody, to suppressive mediators (FIG. 6D). Suppressor activity was also measured after 4 day culture with blocking agents, including anti-PD-1 antibody, and the results are shown in Table 9.

TcR-I T cells [3] = test: In vitro TcR-I proliferation and tolerance with TRAMP DCs and blocking agents; format: cell-based, mouse
Method: Naïve TcR-I T cells were used as responder cells in a proliferation assay; 2×10^4 T cells were stimulated with antigen and 2×10^4 isolated prostatic DCs. After 72 h of culture, wells were pulsed with 1 μCi [^3H] thymidine (Amersham, Buckinghamshire, England) for 16 h. The cells were then harvested using a Cell Harvester (Tomtec, Hamden, Conn.) and radioactivity was measured in a Liquid Scintillation Counter (WALLAC MICROBETA™ TriLux, PerkinElmer, Waltham, Mass.).
as §3, with “To assess suppressor activity, graded numbers of TcR-I T cells were added to 1×10^4 responder 37B7 TRP-2-specific T cells (Singh et al., J. Immunother., 32: 129-139 (2009)), 1×10^5 splenocytes, and 5 μM TRP-2, and incubated for 72 h at 37° C.” left out
as §4
as §5, with “6D).” for “6D). Suppressor activity was also measured after 4 day culture with blocking agents, including anti-PD-1 antibody, and the results are shown in Table 9.”

TRAMP mice = test: UGT and prostate weights (tumor burden) after TcR-I transfer; format: in vivo, mouse; details: day 12 after TcR-I transfer, vs control/untreated
Method: as §1, §2
Control antibody or anti-CD317 antibody was injected i.p. into TRAMP mice on days −1 and 0 relative to T cell transfer. Weights of total urogenital tract (UGT) and dissected prostates were obtained at day 12. […]
Given the enhanced effector functions seen following inhibitory molecule blockade, the effect of blocking these suppressive mediators on anti-tumor immunity was tested. […] UGT weights (FIG. 7A) and prostate weights (FIG. 7B) were assessed on day 12 after TcR-I transfer.

[4] = 6 days after transfer into TRAMP mice, vs untreated/control Ab

| Compound | IFN-γ secretion by TcR-I T cells (TcR-I T cells [1]; [4]) | granzyme B secretion by TcR-I T cells (TcR-I T cells [1]; [4]) | TcR-I T cell antigen responsiveness (TcR-I T cells [1]; day 12 after transfer / 12 days of treatment, TRAMP mice) | % Suppression for Each Source of Primary Stimulation (TcR-I T cells [2]; Suppressor:Responder 1:1) [%] | % Suppression for Each Source of Primary Stimulation (TcR-I T cells [2]; Suppressor:Responder 1:2) [%] | % Suppression for Each Source of Primary Stimulation (TcR-I T cells [2]; Suppressor:Responder 1:4) [%] | % Suppression for Each Source of Primary Stimulation (TcR-I T cells [2]; Suppressor:Responder 2:1) [%] | TADC-stimulated TcR-I proliferation (TcR-I T cells [3]; agent added to in vitro culture, primary stimulation) | tolerization of TcR-I T cells during co-culture (TcR-I T cells [3]; secondary stimulation 4 days after primary culture with agent) | prostate weight (TRAMP mice) | total urogenital tract (UGT) weight (TRAMP mice) | TcR-I responsiveness (block of in vitro tolerization) (TcR-I T cells [3]; blocking ARG in vitro) |
| --- | --- | --- | --- | --- | --- | --- | --- | --- | --- | --- | --- | --- |
| Cn1cc(C[C@@H](N)C(=O)O)c2ccccc21 [1MDT, 1-methyl-D-tryptophan] | significantly increased | significantly increased | loss of antigen responsiveness | 20 | 15 | 8 | 30 | enhanced | did not prevent them from becoming tolerized | statistically significant decrease | statistically significant decrease |  |
| N=C(NO)NCC[C@H](N)C(=O)O [Nor-NOHA] |  |  |  |  |  |  |  |  |  |  |  | did not enhance TcR-I responsiveness |
